From patent US20060241097A1, “Pesticidal substituted 1,2,5-thiadiazole derivatives” (FMC CORPORATION, priority 2003, published 2006)
Structures can show the parent of a compound that is named as a salt. Where two headings read alike, the source gives them in different places. One block for each compound: values may come before it.

Legend:
[1] = system: cotton aphid (Aphis gossypii); experiment: Foliar test against cotton aphid on cotton seedlings; format: in vivo
Procedure: Candidate pesticides, i.e., insecticides of the present invention were evaluated on 7-10 day old cotton seedlings infested with cotton aphid (Aphis gossypii). At least 12 hours prior to the test, leaf cuttings containing about 50 adult aphids were placed on leaves of each of duplicate cotton seedlings for each rate of application of candidate insecticide. Solutions of the candidate insecticide were prepared for testing by serial dilution of a standard solution comprised of an appropriate amount of insecticide in a water/acetone solvent, which contained a small amount of a surfactant. Rates of application of candidate insecticide may range from about 1000 ppm, or more, to about 3 ppm, or less, in a rate series of, for example, 1000 ppm, 100 ppm, 30 ppm, 10 ppm, and 3 ppm. The solutions containing each rate of application of candidate insecticide were then sprayed to run-off to both the upper and lower portions of the leaves of the aphid-infested cotton seedlings. Each test of foliar-applied candidate insecticide included appropriate standard insecticide of known insecticidal activity and blank treatments to aid in assessing the insecticidal activity of the candidate insecticide. Upon completion of the spraying with candidate insecticide, the cotton seedlings were maintained in a growth chamber for a period of 72 hours. After this time, the seedlings were examined for dead insects. Insects were classified as dead if they were off-color or brown and desiccated. Upon completion of the evaluation of the test, the percent mortality of the cotton aphid for each rate of application of the candidate insecticide was determined by comparison of the total number of dead insects to the total number of insects in the test.

[2] = system: two-spotted spider mite (Tetranychus urticae); experiment: Foliar test against two-spotted spider mite on pinto bean seedlings; format: in vivo; conditions: foliar spray, 72 hours
Procedure: Candidate pesticides, i.e., acaricides of the present invention were evaluated on 7-8 day old pinto bean seedlings infested with two-spotted spider mite (Tetranychus urticae) in comparison with the corresponding 1,2,4-thiadiazole derivatives. The test was conducted using the test method set forth below:
One to two hours prior to the test, leaf cuttings containing about 50-75 adult mites were placed on leaves of each of duplicate pinto bean seedlings for each rate of application of candidate acaricide. Solutions of the candidate acaricide were prepared for testing by serial dilution of a standard solution comprised of an appropriate amount of acaricide in a water/acetone solvent, which contained a small amount of a surfactant. Rates of application of candidate acaricide may range from about 1000 ppm, or more, to about 1 ppm, or less, in a rate series of, for example, 1000 ppm, 300 ppm, 100 ppm, 30 ppm, 10 ppm, 3 ppm, and 1 ppm. The solutions containing each rate of application of candidate acaricide were then sprayed to run-off to both the upper and lower portions of the leaves of the mite-infested pinto bean seedlings. Each test of foliar-applied candidate acaricide included appropriate standard acaricide of known acaricidal activity and blank treatments to aid in assessing the acaricidal activity of the candidate acaricide. Upon completion of the spraying with candidate acaricide, the pinto bean seedlings were maintained in a growth chamber for a period of 72 hours. After this time, the seedlings were examined for dead acarids. […] Upon completion of the evaluation of the test, the percent control of the two-spotted spider mite for each rate of application of the candidate acaricide was determined by comparison of the total number of dead and motibund acarids to the total number of acarids in the test.

[3] = cotton aphid, foliar spray, 1000 ppm, 72 hours
[4] = cotton aphid, foliar spray, 300 ppm, 72 hours
[5] = Aphis gossypii, foliar, 72 h, read-out: Percent Mortality
[6] = Aphis gossypii, cotton aphid, foliar spray, 300 ppm, 72 hours, read-out: Percent Mortality
[7] = Aphis gossypii, cotton aphid, foliar spray, 1000 ppm, 72 hours, read-out: Percent Mortality

Compound: CCCCCCSc1nsnc1C1=CCCN(C)C1 [Compound 75]
Percent Mortality [1, 3]: 25%

melting point: 47 to 49 °C
Compound: Clc1nsnc1C1=CC=CN(Cc2ccccc2)C1 (as salt: salt) [Compound 162, 3-chloro-4-(1-benzylpyrid-3-yl)-1,2,5-thiadiazole]

Compound: C=CCSc1nsnc1C1=CCCN(C)C1 [Compound 77]
Percent Control ([2]; 300 ppm): 13%

Compound: CCCSc1nsnc1C1=CCCN(C)C1 [Compound 71]
Percent Control ([2]; 300 ppm): 20%

Compound: CCOc1nsnc1C1CN2CCC1CC2 (centres unmarked) [Compound 108]
Percent Mortality [1, 4]: 3%
Percent Mortality [1, 3]: 17%

Compound: CN1CCC=C(c2nsnc2Oc2ccc(F)cc2)C1 [Compound 63]
Percent Mortality ([1]; cotton aphid, foliar spray, 1000 ppm, 72 hours, average of two tests): 48%

Compound: C#CCCOc1nsnc1C1=CCCN(C)C1 [Compound 68]
Percent Mortality (LP class) [1, 3]: LP (LP means that some activity was observed because the population of the cotton aphids was lowered but a value was not calculated.)

Compound: CCCCCSc1nsnc1C1=CCCN(C)C1 [Compound 73]
Percent Mortality (LP class) [1, 3]: LP (LP means that some activity was observed because the population of the cotton aphids was lowered but a value was not calculated.)

Compound: CCCOc1nsnc1C1CN2CCC1CC2 (centres unmarked) [Compound 109]
Percent Control ([2]; 300 ppm): 15%
Percent Control ([2]; 1000 ppm): 65%

Compound: CC#CCOc1nsnc1C1=CCCN(C)C1 [Compound 67]
Percent Control ([2]; 300 ppm): 100%
Percent Control ([2]; 1000 ppm): 100%

Compound: CCCCOc1nsnc1C1=CCCN(C)C1 [Compound 60]
Percent Mortality (LP class) [1, 3]: LP (LP means that some activity was observed because the population of the cotton aphids was lowered but a value was not calculated.)
Percent Control ([2]; 300 ppm): 10%
Percent Control ([2]; 1000 ppm): 41%

melting point: 93 to 95 °C
Compound: Clc1nsnc1C1(Cl)CN2CCC1CC2 (centres unmarked)

Compound: COc1nsnc1C1CN2CCC1CC2 (centres unmarked) [Compound 107]
Percent Mortality [1, 4]: 12%
Percent Mortality [1, 3]: 24%

Compound: Clc1nsnc1C1CN2CCC1CC2 (centres unmarked) [Compound 102, 3-chloro-4-quinuclidin-3-yl-1,2,5-thiadiazole]
mortality at 300 ppm [1, 5]: 8%
mortality at 1000 ppm [1, 5]: 33%
Percent Control ([2]; 100 ppm): 13%
Percent Control ([2]; 300 ppm): 27%

Compound: CCCCOc1nsnc1C1CN2CCC1CC2 (centres unmarked) [Compound 110, 3-butoxy-4-quinuclidin-3-yl-1,2,5-thiadiazole]
mortality at 1000 ppm ([1]; Aphis gossypii, foliar, 72 h, read-out: Percent Mortality (LP class)): > 0%
Percent Control ([2]; 300 ppm): 34%

Compound: CCOC(=O)N1CCC=C(c2nsnc2Cl)C1 [Compound 3]
Percent Mortality (LP class) [1, 3]: LP (LP means that some activity was observed because the population of the cotton aphids was lowered but a value was not calculated.)

Compound: Cc1nsnc1-c1cccnc1 [Compound 132, 3-methyl-4-pyrid-3-yl-1,2,5-thiadiazole]
mortality at 300 ppm [1, 6]: 35%
mortality at 1000 ppm [1, 7]: 82%

Compound: CCCOc1nsnc1C1=CC=CNC1 [Compound 140]
Percent Mortality (LP class) [1, 3]: LP (LP means that some activity was observed because the population of the cotton aphids was lowered but a value was not calculated.)

Compound: CN1CCC=C(c2nsnc2F)C1 [Compound 23, 3-fluoro-4-(1-methyl-1,2,5,6-tetrahydropyrid-3-yl)-1,2,5-thiadiazole]
mortality at 1000 ppm ([1]; Aphis gossypii, cotton aphid, foliar spray, 1000 ppm, 72 hours, average of two tests, read-out: Percent Mortality): 11%
Percent Control ([2]; 10 ppm): 35%
Percent Control ([2]; 30 ppm): 95%
Percent Control ([2]; 100 ppm): 98%
Percent Control ([2]; 300 ppm): 100%

Compound: CN1CCC=C(c2cnsn2)C1 [Compound 4, 3-[1-methyl(1,2,5,6-tetrahydropyrid-3-yl)]-1,2,5-thiadiazole]
mortality at 100 ppm ([1]; Aphis gossypii, cotton aphid, foliar spray, 100 ppm, 72 hours, read-out: Percent Mortality): 24%
mortality at 300 ppm [1, 6]: 73%
mortality at 1000 ppm [1, 7]: 86%
Percent Control ([2]; 10 ppm): 49%
Percent Control ([2]; 30 ppm): 96%
Percent Control ([2]; 100 ppm): 100%
Percent Control ([2]; 300 ppm): 100%
Percent Control ([2]; 1000 ppm): 100%

Compound: Cc1nsc(C2=CCCN(C)C2)n1 [B, reference compound]
Percent Control ([2]; 300 ppm): completely inactive

Compound: CCCCSc1nsnc1C1=CCCN(C)C1 [Compound 72]
Percent Control ([2]; 300 ppm): 4%
Percent Control ([2]; 1000 ppm): 34%

Compound: C#CCOc1nsnc1C1=CCCN(C)C1 [Compound 66]
Percent Control ([2]; 100 ppm): 52%
Percent Control ([2]; 300 ppm): 83%
Percent Control ([2]; 1000 ppm): 98%

Compound: CN1CCC=C(c2ncns2)C1 [A, reference compound]
Percent Control ([2]; 300 ppm): completely inactive

Compound: Clc1nsnc1C1=CCCN(Cc2ccccc2)C1 [Compound 2, 3-chloro-4-[1-benzyl(1,2,5,6-tetrahydropyrid-3-yl)]-1,2,5-thiadiazole]
mortality at 1000 ppm ([1]; Aphis gossypii, cotton aphid, foliar spray, 1000 ppm, 72 hours, read-out: Percent Mortality (LP class)): > 0%
